Data reported in patent US20190249166A1, “Antidote for Chondroitinase” (priority 2018, published 2019).

Tests used:
intervertebral disc [1] = assay: Disc height index (DHI) by Micro-CT after intradiscal injection in rabbits; assay type: in vivo, New Zealand rabbits; conditions: for DHI, with heparin / effect on DHI reduction caused by chondroitinase ABC: 0.35 mg heparin
Experimental: Being used as an antidote, the non-substrate GAG of the present invention is effective in vivo. In the case of chemonucleolysis by chondroitinase ABC, the enzyme is injected into the nucleus pulposus for partial digestion. The effective antidote will be able to inhibit the activity of chondroitinase ABC intradiscally, as well as the reduction of the size of the intervertebral disc. […] When comparing to the control animal, for which the intervertebral disc is injected with Chondroitinase ABC only, the reduction of the disc height can only be observed in the control animal. The detailed experimental result is illustrated in Example 6.
New Zealand rabbits weighing 2.5-3.0 kg were divided into two groups: (1) injection of Chondroitinase ABC (0.05 U and 0.15 U) and heparin (0.35 mg); and (2) injection of chondroitinase ABC (0.05 U and 0.15 U). Before injection of chondroitinase ABC with or without heparin, rabbits were fixed in the dorsal position and anesthetized by 10% chloral hydrate (1 ml/kg). The intervertebral disc (IVD) was located by means of portable x-ray fluoroscope and the injection of the chondroitinase ABC with or without heparin was under fluoroscopic guidance. Rabbits were sacrificed just after the injection and 3 weeks after of injection for collecting the spine. The disc height index (DHI) analyzed by using LaTheta™ Micro-CT scanners (Hitachi-Aloka) at a resolution of 48 um (FIG. 7) and is listed in Table 2.

chondroitinase ABC [2] = target: T1, chondroitinase ABC (Proteus vulgaris, UniProt P59807); assay: Electrophoretic mobility shift assay (EMSA) of chondroitinase ABC and heparin; assay type: binding; conditions: 20 μg chondroitinase ABC with 3.8 μg heparin (about 0.2 nmol each), room temperature 30 min
T1 sequence (P59807 25-1021): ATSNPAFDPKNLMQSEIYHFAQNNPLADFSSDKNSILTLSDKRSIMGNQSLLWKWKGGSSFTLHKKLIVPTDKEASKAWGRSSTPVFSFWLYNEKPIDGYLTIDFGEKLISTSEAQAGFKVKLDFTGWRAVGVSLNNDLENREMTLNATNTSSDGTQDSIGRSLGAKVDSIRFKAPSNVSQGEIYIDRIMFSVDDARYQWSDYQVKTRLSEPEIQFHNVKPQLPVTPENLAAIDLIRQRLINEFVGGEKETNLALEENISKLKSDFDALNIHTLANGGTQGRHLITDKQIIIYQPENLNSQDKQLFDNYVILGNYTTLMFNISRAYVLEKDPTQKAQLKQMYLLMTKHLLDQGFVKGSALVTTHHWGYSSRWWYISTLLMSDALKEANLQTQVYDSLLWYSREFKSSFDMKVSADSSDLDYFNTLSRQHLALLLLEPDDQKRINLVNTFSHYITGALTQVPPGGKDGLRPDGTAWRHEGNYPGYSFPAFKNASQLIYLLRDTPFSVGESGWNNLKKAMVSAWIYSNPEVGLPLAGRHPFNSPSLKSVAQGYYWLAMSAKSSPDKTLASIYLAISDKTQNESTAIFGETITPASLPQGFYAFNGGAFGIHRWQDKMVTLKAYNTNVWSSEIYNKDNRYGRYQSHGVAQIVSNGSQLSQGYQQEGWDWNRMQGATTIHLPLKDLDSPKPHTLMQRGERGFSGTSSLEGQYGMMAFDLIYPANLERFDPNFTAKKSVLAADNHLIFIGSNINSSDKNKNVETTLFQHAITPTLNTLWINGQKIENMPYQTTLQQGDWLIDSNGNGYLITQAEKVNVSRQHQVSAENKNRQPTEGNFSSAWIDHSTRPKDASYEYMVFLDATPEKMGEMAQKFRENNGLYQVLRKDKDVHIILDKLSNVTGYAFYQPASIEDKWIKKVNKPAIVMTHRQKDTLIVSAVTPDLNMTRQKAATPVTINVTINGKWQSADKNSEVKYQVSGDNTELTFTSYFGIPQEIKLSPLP
Excerpt: Further experiments can be applied to show the direct interaction, or more precisely binding, between GAG and chondroitinase. One of the experimental methods that can show the direct interaction between non-substrate GAG and chondroitinase (without introducing other molecule, like the substrate) is the electrophoretic mobility shift (EMSA) assay.
The principle of EMSA is that the mobility of biomolecules under electrophoresis is affected by the size and charge of the biomolecule. […] The overall size will increase and the mobility is usually changed in the gel electrophoresis. In other words, a shift in the position of the biomolecule in the gel will be observed if there is binding between the biomolecules. For studying the interaction between chondroitinase and non-substrate GAG, EMSA is conducted as described. 5-30 μg chondroitinase is mixed with (a) 0.5 molar ratio, (b) equal molar, and (c) 2 folds molar excess of GAG, and incubated at room temperature for at least 20 min, and more preferred 30 min. These mixtures are loaded onto native polyacrylamide gel and subjected to electrophoresis for 2.5 hours at 100 V. Two identical gels are prepared but stained with different staining solution (Alcian blue for GAG, and Coomassie blue for chondroitinase). […]

chondroitinase ABC [3] = target: T1, chondroitinase ABC; assay: Time profile of inhibition of chondroitinase ABC by heparin, absorbance at 232 nm; assay type: biochemical
Experimental: In one embodiment, the inhibition of chondroitinase ABC by heparin could be at a particular time point during the enzymatic treatment, so that the enzymatic action can be precisely terminated. […] The enzymatic reaction in the mixture, which is the digestion of the chondroitin sulfate polymer into unsaturated oligosaccharide or disaccharide, can be monitored at 232 nm with incubation in 37° C. The reaction can be incubated for 5 hours and at 1.5 and 2.5 hours, with suitable concentrations of heparin including, but not limited to, 0.1-0.01 times the chondroitin sulfate, being introduced for evaluating the time response of the inhibition effect. Detailed experimental results are illustrated in example 5.
Chondroitin sulfate and chondroitinase ABC were introduced into 50 mM Tris HCl buffered solution (pH 7.6), to a final concentration of 1 mg/ml and 0.001 U/ml. […] At time of 0 hour, 1.5 hour, and 2.5 hour, 0.01 mg/ml heparin was introduced into the reaction mixture separately into 3 reaction mixture, where the remaining reaction mixture was sampled and monitored at the same time interval as the 3 reaction mixture with heparin introduction. The progress of the enzymatic reaction was monitored by measuring the absorbance at 232 nm of a sample taken from the reaction mixture every 30 min.

chondroitinase ABC [4] = target: T1, chondroitinase ABC; assay: Disc dissolution assay with bovine tail nucleus pulposus, absorbance at 232 nm; assay type: biochemical
Excerpt: In the case of using chondroitinase as a chemonucleolysis agent, the site of injection is a gel-like nucleus pulposus which is dense with chondroitin sulfate, collagen, and the other extra-cellular matrix. To evaluate the effect of these matrices on the inhibition, a disc dissolution assay can be conducted. In the experiment, the nucleus pulposus, of which chondroitin sulfate is composed of 65% dry weight, are collected from bovine tails. […]
Introducing the non-substrate GAG, e.g. heparin, into the solution together with the chondroitinase, results in suppression of the release of chondroitin sulfate tetrasaccharide and/or disaccharide from the nucleus pulposus sample, is therefore a strong indication of the inhibitory and antidote effect on the enzyme. This inhibition of tetrasaccharide/disaccharide release is reflected by the reduction of the absorbance at 232 nm when compared with the buffer solution in the presence chondroitinase only. […]
In disc dissolution assay, 6 intervertebral discs were obtained from a bovine tail. […] The absorbance at 232 nm of each solution was measured at 0 hours, 5 hours, and 20 hours after the immersion of the nucleus pulposus. The increase in absorbance was predominantly due to the dissolution of the small-molecule-containing unsaturated carbon-carbon double bond from the nucleus pulposus. […]

chondroitinase ABC [5] = target: T1, chondroitinase ABC; assay: Chondroitinase enzyme inhibition assay, absorbance at 232 nm with chondroitin sulfate C; assay type: biochemical; conditions: 0.0125 mg/ml heparin; 0.01 U/ml chondroitinase ABC; 0.1 mg/ml chondroitin sulfate C; 37° C., 20 min
Experimental: Freeze-dried chondroitinase is reconstituted in 0.1-10 mg/ml BSA solution, preferably 1 mg/ml. The chondroitinase solution is serially diluted into a final concentration in the range of 0.065-0.35 U/ml, and more preferably 0.260-0.175 U/ml. Chondroitin sulfate C is dissolved in a buffer at pH 7.0-9.0, preferably at pH 8.0±0.1 with Tris-HCl, sodium phosphate, sodium acetate or sodium borate, preferably 10-250 mM, and more preferably 50 mM Tris-HCl as buffer. The final concentration of chondroitin sulfate C is at the range of 0.2-20 mg/ml. Chondroitinase solution and the chondroitin sulfate C solution are pre-incubated in 37° C. and mixed in a ratio of 1:50. The reaction mixture is further incubated for 20 min for allowing the enzymatic reaction proceeding. The absorbance of the reaction mixture is continuously monitored by spectrophotometer and the rate of the reaction is calculated by multiplying the slope of the absorbance-time curve with millimolar extinct coefficient of the reaction product at 232 nm (which is reported to be 5.5.). […]
2 mg/ml Chondroitin sulfate C solution was prepared by dissolving in buffer at pH 8.0 Tris-HCl (50 mM). […] The reaction mixture was further incubated at 37° C. for 20 min in spectrophotometer and the absorbance at 232 nm was continuously monitored. […] In FIG. 3, the absorbance of the solution without the presence of heparin at 232 nm increased linearly.

intervertebral disc [6] = assay: Disc height index (DHI) by Micro-CT after intradiscal injection in rabbits; assay type: in vivo, New Zealand rabbits; conditions: IVD injected with 0.05 U and 0.15 U chondroitinase ABC only

| Substance | DHI, with heparin (intervertebral disc [1]; 0 day after injection, 0.05 U chondroitinase ABC) | DHI, with heparin (intervertebral disc [1]; 0 day after injection, 0.15 U chondroitinase ABC) | effect on DHI reduction caused by chondroitinase ABC (intervertebral disc [1]; 0.05 U chondroitinase ABC) | effect on DHI reduction caused by chondroitinase ABC (intervertebral disc [1]; 0.15 U chondroitinase ABC) | DHI, with heparin (intervertebral disc [1]; 3 weeks after injection, 0.05 U chondroitinase ABC) | DHI, with heparin (intervertebral disc [1]; 3 weeks after injection, 0.15 U chondroitinase ABC) | binding to chondroitinase ABC (EMSA, Alcian Blue stain) (chondroitinase ABC [2]) | rate of increase in absorbance at 232 nm of the reaction mixture (chondroitinase ABC [3]; 0.01 mg/ml heparin introduced at 0, 1.5 or 2.5 hour, 1 mg/ml chondroitin sulfate, 0.001 U/ml chondroitinase ABC, 37° C., 5 hours) | persistence of inhibition of the enzymatic reaction (chondroitinase ABC [3]; 0.01 mg/ml heparin, throughout the 5 hours reaction period) | absorbance at 232 nm of solution (disc dissolution) (chondroitinase ABC [4]; 1U/ml chondroitinase ABC and 1 mg/ml heparin in PBS with 10 mM sodium lactate, 0, 5, 20 hours) | inhibition of enzymatic reaction of chondroitinase (absorbance at 232 nm) (chondroitinase ABC [5]) | DHI, without heparin (intervertebral disc [1]; 0.05 U chondroitinase ABC only) | DHI, without heparin (intervertebral disc [1]; 0.15 U chondroitinase ABC only) | DHI, without heparin (intervertebral disc [1]; 3 weeks after injection, 0.05 U chondroitinase ABC only) | DHI, without heparin (intervertebral disc [1]; 3 weeks after injection, 0.15 U chondroitinase ABC only) | absorbance at 232 nm of solution (disc dissolution) (chondroitinase ABC [4]; 1U/ml chondroitinase ABC without heparin, compared with PBS and sodium lactate) | effect on DHI (intervertebral disc [6]) |
| --- | --- | --- | --- | --- | --- | --- | --- | --- | --- | --- | --- | --- | --- | --- | --- | --- | --- |
| heparin | 0.081 | 0.085 | significantly inhibited the DHI reduction | inhibited the DHI reduction but the inhibitory effect was not as significant as at the lower concentration | 0.082 | 0.066 | binds tightly to the enzyme | significantly reduced | remains stable and constant | significantly reduced the absorbance | completely inhibited |  |  |  |  |  |  |
| Chondroitinase ABC |  |  |  |  |  |  |  |  |  |  |  | 0.082 | 0.071 | 0.044 | 0.048 | the absorbance increased remarkably | significantly reduction of DHI |
